Measurements from PMC12076188 (Cancer Research Communications, 2025).
Entries after “also recorded” stand apart in the source; their conditions may differ. Like-named read-outs stand apart in the source and are kept apart here.

What was measured:
[1] = molecular target: hERG potassium channel (Homo sapiens, UniProt Q12809); assay: 41-target safety off-target activity panel
[2] = molecular target: Adrenergic α1A (Homo sapiens, UniProt P35348); assay: 41-target safety off-target activity panel
[3] = system: skin; assay: Phototoxicity Study; format: in vivo, England Guinea Pig; settings: single dose 300 and 1000 mg/kg oral gavage followed by UV irradiation; GLP
[4] = molecular target: TK LCK (Homo sapiens, UniProt P06239); assay: 41-target safety off-target activity panel
[5] = molecular target: T1, GDP-bound HRAS WT (Homo sapiens, UniProt P01112); assay: SOS1-mediated guanine nucleotide exchange assay (TR-FRET); format: biochemical
T1 construct: His-tagged HRAS WT (aa 1–166); made in house; host or cells: Escherichia coli
T1 sequence (P01112 1-166): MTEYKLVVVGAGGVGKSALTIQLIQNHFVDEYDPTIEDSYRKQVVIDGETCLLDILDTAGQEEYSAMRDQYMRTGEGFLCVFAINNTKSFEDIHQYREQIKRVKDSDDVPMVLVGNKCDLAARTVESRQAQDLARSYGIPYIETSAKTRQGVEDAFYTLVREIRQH

[6] = AUC in plasma and brain following a single oral dose; format: in vivo, Mouse (NOD SCID); settings: 100 mg/kg; for Kp: brain
[7] = molecular target: Cholinesterase AChE (Homo sapiens, UniProt P22303); assay: 41-target safety off-target activity panel
[8] = molecular target: Dopamine D2S (Homo sapiens, UniProt P14416); assay: 41-target safety off-target activity panel
Dopamine D2S, sequence (P14416 1-414 isoform P14416-2): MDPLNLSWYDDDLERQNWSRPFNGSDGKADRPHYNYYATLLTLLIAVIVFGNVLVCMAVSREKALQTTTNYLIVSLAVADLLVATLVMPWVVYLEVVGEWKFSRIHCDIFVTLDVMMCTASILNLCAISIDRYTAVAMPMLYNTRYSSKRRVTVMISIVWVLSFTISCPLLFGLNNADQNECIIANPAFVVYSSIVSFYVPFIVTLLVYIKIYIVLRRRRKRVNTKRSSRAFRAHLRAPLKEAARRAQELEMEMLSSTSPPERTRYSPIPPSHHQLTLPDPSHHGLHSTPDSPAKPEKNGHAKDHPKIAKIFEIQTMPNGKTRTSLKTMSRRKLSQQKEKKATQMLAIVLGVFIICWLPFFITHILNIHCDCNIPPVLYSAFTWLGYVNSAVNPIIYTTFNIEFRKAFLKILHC

[9] = system: S. typhimurium TA97a, TA98, TA100, TA102 and TA1535; assay: In vitro Ames; format: cell-based; settings: 50, 150, 500, 1500 and 5000 μg/plate, presence or absence of S9 mix; GLP
Experimental: Study Species/Strain Gender/No. per Noteworthy Findings GLP Compliance
strains of S. typhimurium: 150, 500, 1500 and 5000 μg/plate in the presence or absence of S9 mix.
and TA1535 The result of this Ames test was concluded to be negative. […]

[10] = system: Cardiovascular System (lead-II ECG, blood pressure); assay: In vivo safety pharmacology, GLP; set-up: species or system Beagle Dog; settings: conscious Beagle dogs, single oral dose 50, 150 and 450 mg/kg
Description: Supplementary Table S11. In vivo safety pharmacology of glecirasib.
Organ Species/Strain Gender/No. per Group Noteworthy Findings GLP Compliance
System Beagle Dog 3/gender/group conscious and unrestrained Beagle dogs following a single oral dose of Yes

[11] = molecular target: 5-Hydroxytryptamine 5HT2C (Homo sapiens, UniProt P28335); assay: 41-target safety off-target activity panel
5-Hydroxytryptamine 5HT2C, sequence (P28335 33-458): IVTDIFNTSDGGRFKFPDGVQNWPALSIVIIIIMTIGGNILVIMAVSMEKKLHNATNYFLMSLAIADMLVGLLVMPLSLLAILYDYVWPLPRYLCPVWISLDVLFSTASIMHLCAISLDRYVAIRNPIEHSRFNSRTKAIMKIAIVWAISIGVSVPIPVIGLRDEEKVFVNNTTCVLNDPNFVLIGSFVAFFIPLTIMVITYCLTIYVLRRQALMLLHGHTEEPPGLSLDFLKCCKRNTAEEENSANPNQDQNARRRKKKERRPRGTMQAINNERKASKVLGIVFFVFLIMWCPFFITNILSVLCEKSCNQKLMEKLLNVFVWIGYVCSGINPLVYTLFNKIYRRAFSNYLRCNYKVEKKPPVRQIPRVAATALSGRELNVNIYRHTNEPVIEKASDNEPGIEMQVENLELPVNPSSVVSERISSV

[12] = molecular target: Norepinephrine Transporter NET (Homo sapiens, UniProt P23975); assay: 41-target safety off-target activity panel
[13] = molecular target: 5-Hydroxytryptamine 5HT1A (Homo sapiens, UniProt P08908); assay: 41-target safety off-target activity panel
5-Hydroxytryptamine 5HT1A, sequence (P08908 whole entry): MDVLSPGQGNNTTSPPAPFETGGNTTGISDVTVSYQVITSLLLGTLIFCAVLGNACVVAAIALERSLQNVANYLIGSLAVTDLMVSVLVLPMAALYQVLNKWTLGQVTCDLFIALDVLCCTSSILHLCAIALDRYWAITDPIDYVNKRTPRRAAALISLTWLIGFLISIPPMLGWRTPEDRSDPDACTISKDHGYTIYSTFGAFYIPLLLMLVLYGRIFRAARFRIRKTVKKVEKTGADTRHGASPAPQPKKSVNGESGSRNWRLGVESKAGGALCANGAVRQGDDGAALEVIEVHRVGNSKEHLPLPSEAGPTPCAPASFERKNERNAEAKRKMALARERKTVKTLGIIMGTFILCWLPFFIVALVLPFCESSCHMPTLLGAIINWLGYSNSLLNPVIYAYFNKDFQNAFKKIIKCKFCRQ

[14] = molecular target: Adrenergic β1 (Homo sapiens, UniProt P08588); assay: 41-target safety off-target activity panel
Adrenergic β1, sequence (P08588 whole entry): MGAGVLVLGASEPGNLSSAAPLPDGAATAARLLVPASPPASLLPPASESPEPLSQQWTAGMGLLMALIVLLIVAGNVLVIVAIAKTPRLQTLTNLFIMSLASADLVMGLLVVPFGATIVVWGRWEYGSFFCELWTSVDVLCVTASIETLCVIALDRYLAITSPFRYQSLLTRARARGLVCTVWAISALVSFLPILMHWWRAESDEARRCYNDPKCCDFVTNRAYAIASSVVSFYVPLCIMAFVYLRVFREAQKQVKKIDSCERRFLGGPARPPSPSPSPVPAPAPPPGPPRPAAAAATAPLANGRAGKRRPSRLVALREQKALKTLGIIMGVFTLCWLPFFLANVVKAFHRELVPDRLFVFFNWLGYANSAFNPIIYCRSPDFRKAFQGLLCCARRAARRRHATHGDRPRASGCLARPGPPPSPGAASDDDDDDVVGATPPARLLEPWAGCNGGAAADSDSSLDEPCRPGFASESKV

[15] = molecular target: Glucocorticoid GR (Homo sapiens, UniProt P04150); assay: 41-target safety off-target activity panel
[16] = molecular target: Adenosine A2A (Homo sapiens, UniProt P29274); assay: 41-target safety off-target activity panel
Adenosine A2A, sequence (P29274 whole entry): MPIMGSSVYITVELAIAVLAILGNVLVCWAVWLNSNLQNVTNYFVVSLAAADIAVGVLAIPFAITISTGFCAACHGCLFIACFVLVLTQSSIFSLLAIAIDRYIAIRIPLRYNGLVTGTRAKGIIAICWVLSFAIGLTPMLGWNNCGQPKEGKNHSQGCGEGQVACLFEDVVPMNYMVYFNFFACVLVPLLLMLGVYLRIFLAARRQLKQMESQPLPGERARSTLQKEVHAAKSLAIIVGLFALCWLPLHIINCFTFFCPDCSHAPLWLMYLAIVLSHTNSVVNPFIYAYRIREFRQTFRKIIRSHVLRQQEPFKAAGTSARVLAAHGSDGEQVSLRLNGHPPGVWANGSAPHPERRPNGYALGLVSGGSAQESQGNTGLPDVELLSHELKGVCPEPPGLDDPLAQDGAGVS

[17] = molecular target: Adrenergic β2 (Homo sapiens, UniProt P07550); assay: 41-target safety off-target activity panel
Adrenergic β2, sequence (P07550 whole entry): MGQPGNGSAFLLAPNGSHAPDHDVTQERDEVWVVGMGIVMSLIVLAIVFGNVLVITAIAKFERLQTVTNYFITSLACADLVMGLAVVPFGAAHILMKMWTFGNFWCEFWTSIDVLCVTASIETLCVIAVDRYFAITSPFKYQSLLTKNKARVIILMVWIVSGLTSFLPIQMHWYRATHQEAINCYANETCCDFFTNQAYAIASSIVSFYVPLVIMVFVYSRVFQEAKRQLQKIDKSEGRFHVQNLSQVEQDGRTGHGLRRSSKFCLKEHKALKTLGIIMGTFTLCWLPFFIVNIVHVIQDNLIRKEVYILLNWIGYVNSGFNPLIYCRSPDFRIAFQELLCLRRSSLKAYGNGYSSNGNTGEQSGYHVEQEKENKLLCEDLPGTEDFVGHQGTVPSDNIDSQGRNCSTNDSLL

[18] = molecular target: T2, PIM2 (Homo sapiens, UniProt Q9P1W9); assay: 330-kinase panel; format: biochemical
T2 construct: purchased ICE Bioscience (contract screen)
T2 sequence (Q9P1W9 whole entry, species assumed): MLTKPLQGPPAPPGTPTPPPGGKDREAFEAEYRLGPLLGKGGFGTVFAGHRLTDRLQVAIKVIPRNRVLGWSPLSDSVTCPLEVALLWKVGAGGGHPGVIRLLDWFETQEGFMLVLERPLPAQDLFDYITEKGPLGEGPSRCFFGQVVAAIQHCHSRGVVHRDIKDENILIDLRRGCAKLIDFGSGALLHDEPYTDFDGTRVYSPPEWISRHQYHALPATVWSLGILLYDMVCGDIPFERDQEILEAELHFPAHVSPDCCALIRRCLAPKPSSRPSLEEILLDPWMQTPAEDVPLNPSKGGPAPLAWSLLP
Description: Supplementary Table S4. 330-kinase panel.

[19] = molecular target: 5-Hydroxytryptamine 5HT2A (Homo sapiens, UniProt P28223); assay: 41-target safety off-target activity panel
5-Hydroxytryptamine 5HT2A, sequence (P28223 whole entry): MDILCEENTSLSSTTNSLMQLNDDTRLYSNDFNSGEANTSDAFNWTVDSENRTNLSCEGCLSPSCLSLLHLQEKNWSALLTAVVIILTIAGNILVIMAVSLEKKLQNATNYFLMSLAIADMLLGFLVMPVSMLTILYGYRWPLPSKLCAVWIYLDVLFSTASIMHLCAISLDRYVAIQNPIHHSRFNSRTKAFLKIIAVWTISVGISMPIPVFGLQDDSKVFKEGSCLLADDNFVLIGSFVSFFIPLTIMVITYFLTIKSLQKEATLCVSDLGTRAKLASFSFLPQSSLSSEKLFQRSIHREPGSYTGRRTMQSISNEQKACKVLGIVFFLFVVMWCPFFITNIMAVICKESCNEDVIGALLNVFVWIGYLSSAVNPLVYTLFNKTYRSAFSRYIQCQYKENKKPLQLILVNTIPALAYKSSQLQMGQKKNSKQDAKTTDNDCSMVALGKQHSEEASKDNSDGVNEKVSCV

[20] = PK/PD study, glecirasib concentration in plasma and tumor; format: in vivo, NOD SCID mice
Experimental: Female NOD SCID mice (NOD/ShiLtJ-Prkdc^scid) were obtained from SPF (Beijing) Biotechnology Co., Ltd. Each female NOD SCID mouse was inoculated subcutaneously in the right flank region with 5 × 10^6 NCI-H358 cells in PBS containing 50% BD Matrigel (Corning) for tumor development. […] All treatments were administered by oral gavage. Plasma and tumor samples were collected for pharmacokinetics (PK) and pharmacodynamics (PD) analyses at the desired time points. p-ERK1/2 (Thr202/Tyr204) levels in tumors were determined using the advanced p-ERK1/2 (Thr202/Tyr204) cellular kit (Cisbio/Revvity). […] PK/PD correlation was established by comparing p-ERK levels with drug concentration at each time point.

[21] = molecular target: Dopamine D1 (Homo sapiens, UniProt P21728); assay: 41-target safety off-target activity panel
Dopamine D1, sequence (P21728 whole entry): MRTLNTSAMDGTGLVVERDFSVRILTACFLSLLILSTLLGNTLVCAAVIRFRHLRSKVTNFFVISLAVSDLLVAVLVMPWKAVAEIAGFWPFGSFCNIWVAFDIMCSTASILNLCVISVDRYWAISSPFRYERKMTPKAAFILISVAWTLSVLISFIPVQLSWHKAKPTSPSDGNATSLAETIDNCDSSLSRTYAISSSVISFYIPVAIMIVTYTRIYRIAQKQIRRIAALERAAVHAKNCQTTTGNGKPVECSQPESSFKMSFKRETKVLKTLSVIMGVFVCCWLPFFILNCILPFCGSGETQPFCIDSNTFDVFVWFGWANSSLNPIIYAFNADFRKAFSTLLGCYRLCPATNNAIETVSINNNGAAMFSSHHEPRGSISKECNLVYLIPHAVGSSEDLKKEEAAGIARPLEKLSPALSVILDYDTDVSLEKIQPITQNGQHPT

[22] = molecular target: Dopamine Transporter DAT (Homo sapiens, UniProt Q01959); assay: 41-target safety off-target activity panel
[23] = molecular target: Sodium channel Nav1.5 (Homo sapiens, UniProt Q14524); assay: 41-target safety off-target activity panel
[24] = system: p-ERK1/2 (Thr202/Tyr204) in NCI-H358 lung cancer xenograft tumors; assay: PK/PD study, p-ERK in tumors; format: in vivo, NOD SCID mice
Experimental: Female NOD SCID mice (NOD/ShiLtJ-Prkdc^scid) were obtained from SPF (Beijing) Biotechnology Co., Ltd. Each female NOD SCID mouse was inoculated subcutaneously in the right flank region with 5 × 10^6 NCI-H358 cells in PBS containing 50% BD Matrigel (Corning) for tumor development. […] All treatments were administered by oral gavage. […] PK/PD correlation was established by comparing p-ERK levels with drug concentration at each time point.

[25] = molecular target: 5-Hydroxytryptamine 5HT2B (Homo sapiens, UniProt P41595); assay: 41-target safety off-target activity panel
5-Hydroxytryptamine 5HT2B, sequence (P41595 whole entry): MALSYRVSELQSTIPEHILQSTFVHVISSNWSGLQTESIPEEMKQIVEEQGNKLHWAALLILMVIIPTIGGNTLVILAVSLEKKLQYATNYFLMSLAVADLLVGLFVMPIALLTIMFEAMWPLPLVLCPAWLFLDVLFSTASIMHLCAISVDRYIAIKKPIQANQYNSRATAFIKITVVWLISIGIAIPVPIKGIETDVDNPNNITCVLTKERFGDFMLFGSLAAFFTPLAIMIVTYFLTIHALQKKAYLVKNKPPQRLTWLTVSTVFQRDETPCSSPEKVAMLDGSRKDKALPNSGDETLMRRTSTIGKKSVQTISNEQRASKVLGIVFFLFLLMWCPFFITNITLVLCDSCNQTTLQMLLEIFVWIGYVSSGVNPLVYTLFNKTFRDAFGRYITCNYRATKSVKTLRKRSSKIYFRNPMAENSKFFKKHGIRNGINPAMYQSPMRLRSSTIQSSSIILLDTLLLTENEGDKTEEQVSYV

[26] = after 8 hours, 30 mg/kg single oral dose, below the quantification limit

Adrenergic α1A, sequence (P35348 whole entry): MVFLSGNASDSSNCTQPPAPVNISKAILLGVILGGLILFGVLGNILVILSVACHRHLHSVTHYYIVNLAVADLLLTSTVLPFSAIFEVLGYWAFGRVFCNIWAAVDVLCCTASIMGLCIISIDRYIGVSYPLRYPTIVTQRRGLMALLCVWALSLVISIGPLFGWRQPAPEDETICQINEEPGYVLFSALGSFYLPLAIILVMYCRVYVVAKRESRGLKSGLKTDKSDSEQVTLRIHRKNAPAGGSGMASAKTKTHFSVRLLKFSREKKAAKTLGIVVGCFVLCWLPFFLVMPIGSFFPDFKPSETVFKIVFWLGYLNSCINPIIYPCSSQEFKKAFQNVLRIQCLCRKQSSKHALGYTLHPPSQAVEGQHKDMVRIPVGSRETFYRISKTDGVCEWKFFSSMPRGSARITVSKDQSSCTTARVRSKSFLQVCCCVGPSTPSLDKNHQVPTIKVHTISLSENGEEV

Q: With C=CC(=O)N1CCN(c2c(C#N)c(=O)n(-c3c(C)ccnc3C(C)C)c3nc(-c4c(N)c(F)c(F)c(F)c4F)c(Cl)cc23)CC1 [Glecirasib] as the compound, how does the inhibition at 10 µM [1] read?
A: Its inhibition at 10 µM is 18.2%.

Q: What about the inhibition at 10 µM [2] of the same compound?
A: The inhibition at 10 µM was 22.9%.

Q: What about the Mean % activation ([2]; Glecirasib 10 μM) of the same compound?
A: The Mean % activation was 27.61%.

Q: What about the phototoxicity result [3] of the same compound?
A: The phototoxicity result was “No phototoxicity was observed; also recorded: negative”.

Q: And the inhibition at 10 µM [4]?
A: Its inhibition at 10 µM is 0.93%.

Q: What about the IC50 [5] of the same compound?
A: Its IC50 is > 10 µM.

Q: And the “AUC0-24h Brain” value ([6]; Mouse (NOD SCID), Female, single dose)?
A: Its value is 955 ng·h/g.

Q: What about the Kp ([6]; NOD SCID, mouse, read-out: distribution in the brain, % of AUC in plasma) of the same compound?
A: Its Kp is 0.04.

Q: What about the Kp ([6]; Mouse (NOD SCID), Female, single dose, read-out: Brain/Plasma AUC0-24h ratio (%)) of the same compound?
A: Its Kp is 0.0372.

Q: And the AUC(0-t) ([6]; plasma, Mouse (NOD SCID), Female, single dose, read-out: AUC0-24h Plasma)?
A: Its AUC(0-t) is 25700 ng·h/mL.

Q: And the inhibition at 10 µM [7]?
A: The inhibition at 10 µM was -8.33%.

Q: And the inhibition at 10 µM [8]?
A: The inhibition at 10 µM was 0.22%.

Q: And the Mean % activation ([8]; Glecirasib 10 μM)?
A: The Mean % activation was -0.38%.

Q: And the Ames test result [9]?
A: The Ames test result was “negative”.

Q: And the “Noteworthy Findings, cardiovascular” value [10]?
A: Its value is “No effects on the lead-II ECG; also recorded: no risk of QT interval prolongation”.

Q: And the inhibition at 10 µM [11]?
A: The inhibition at 10 µM was 43.2%.

Q: What about the Mean % activation ([11]; Glecirasib 10 μM) of the same compound?
A: Its Mean % activation is 19.92%.

Q: And the inhibition at 10 µM [12]?
A: The inhibition at 10 µM was -35.7%.

Q: And the inhibition at 10 µM [13]?
A: The inhibition at 10 µM was 29.3%.

Q: And the Mean % activation ([13]; Glecirasib 10 μM)?
A: The Mean % activation was 0.27%.

Q: What about the inhibition at 10 µM [14] of the same compound?
A: The inhibition at 10 µM was 30.9%.

Q: What about the Mean % activation ([14]; Glecirasib 10 μM) of the same compound?
A: Its Mean % activation is 16.84%.

Q: What about the inhibition at 10 µM [15] of the same compound?
A: The inhibition at 10 µM was 47%.

Q: And the Mean % activation ([15]; Glecirasib 10 μM)?
A: Its Mean % activation is -2.33%.

Q: What about the inhibition at 10 µM [16] of the same compound?
A: The inhibition at 10 µM was 4.28%.

Q: And the Mean % activation ([16]; Glecirasib 10 μM)?
A: Its Mean % activation is -1.49%.

Q: And the inhibition at 10 µM [17]?
A: The inhibition at 10 µM was 45.3%.

Q: What about the Mean % activation ([17]; Glecirasib 10 μM) of the same compound?
A: The Mean % activation was 6.84%.

Q: And the inhibition at 10 µM [18]?
A: The inhibition at 10 µM was 50%.

Q: What about the inhibition at 10 µM [19] of the same compound?
A: The inhibition at 10 µM was 13.6%.

Q: What about the Mean % activation ([19]; Glecirasib 10 μM) of the same compound?
A: The Mean % activation was -0.04%.

Q: And the “glecirasib concentration in plasma” value [20, 26]?
A: The value was < 1 ng/mL.

Q: What about the “glecirasib concentration in tumor” value [20, 26] of the same compound?
A: Its value is < 5.5 ng/g.

Q: What about the “glecirasib concentration in plasma” value ([20]; after 8 hours, 100 mg/kg single oral dose, below the quantification limit) of the same compound?
A: Its value is < 1 ng/mL.

Q: And the “concentration in plasma and tumor” value ([20]; after 24 hours, single oral administration)?
A: The value was “below the lower limit of quantification”.

Q: And the Tmax ([20]; female, NOD SCID (NOD/ShiLtJ-Prkdc^scid), mouse, plasma and tumor, single oral administration, 30 mg/kg and 100 mg/kg, read-out: time of peak concentration in plasma and tumor)?
A: The Tmax was 2 h.

Q: And the inhibition at 10 µM [21]?
A: Its inhibition at 10 µM is 4.56%.

Q: What about the Mean % activation ([21]; Glecirasib 10 μM) of the same compound?
A: The Mean % activation was 1.51%.

Q: What about the inhibition at 10 µM [22] of the same compound?
A: The inhibition at 10 µM was 6.98%.

Q: And the inhibition at 10 µM [23]?
A: The inhibition at 10 µM was 1.01%.

Q: What about the “p-ERK inhibition in tumors, dose response” value ([24]; 2-hour treatment, single dose 3, 10, 30 and 100 mg/kg) of the same compound?
A: Its value is “inhibited p-ERK in a dose-dependent manner”.

Q: And the “sustained p-ERK inhibition in tumors” value ([24]; for at least 24 hours after single oral administration (30 mg/kg and 100 mg/kg))?
A: The value was “more than 70%”.

Q: And the “time of maximal p-ERK inhibition in tumors” value ([24]; single oral administration, 30 mg/kg and 100 mg/kg)?
A: The value was 2 to 4 h.

Q: And the inhibition at 10 µM [25]?
A: Its inhibition at 10 µM is 21.7%.

Q: What about the Mean % activation ([25]; Glecirasib 10 μM) of the same compound?
A: The Mean % activation was 2.59%.
